# Measurements taken from patent publication US10526287B2, “LSD1 inhibitors and uses thereof” (Constellation Pharmaceuticals, Inc., priority 2015, dated 2020).
# Where a name gives a salt, the structure may show the parent alone.
# Target: LSD1 (Homo sapiens, UniProt O60341)
# Assay: Biochemical assay for LSD1 activity (LSD1 demethylase TR-FRET)
# Conditions: Table 5; biotinylated H3K4me1 peptide, 50 minutes at room temperature, TR-FRET; read-out: LSD1_Pep_TR-FRET_1.0 (IC50 T50)
row,SMILES,IC50
1,"F/C(=C\c1ccccc1)C1CC1NCC1CCNCC1 (racemic) [Compound 108, Racemic 2-((Z)-1-fluoro-2-phenylvinyl)-N-(piperidin-4-ylmethyl)cyclopropanamine Dihydrochloride]",0.1 to 1 µM

# Same assay, conditions: Table 6; biotinylated H3K4me1 peptide, 50 minutes at room temperature, TR-FRET; read-out: LSD1_Pep_TR-FRET_1.0 (IC50 T50)
row,SMILES,IC50
1,CC/C(=C\c1ccccc1)[C@@H]1C[C@H]1NCC1CCN(Cc2ccc(C(=O)OC(C)(C)C)cc2)CC1 (racemic) [Compound 127],0.1 to 1 µM
2,"CC/C(=C\c1ccccc1)[C@@H]1C[C@H]1NC1CCN(Cc2ccc(C(=O)O)cc2)CC1 (racemic) [Compound 128, 4-((4-(((trans)-2-((E)-1-phenylbut-1-en-2-yl)cyclopropyl)amino)piperidin-1-yl)methyl)benzoic acid bis-trifluoroacetic acid salt]",< 0.1 µM
3,"C/C(=C\c1ccccc1)[C@@H]1C[C@H]1NC1CCN(Cc2ccc[nH]c2=O)CC1 (racemic) [Compound 134, 3-((4-(((trans)-2-((E)-1-phenylprop-1-en-2-yl)cyclopropyl)amino)piperidin-1-yl)methyl)pyridin-2(1H)-one bis(2,2,2-trifluoroacetate)]",< 0.1 µM
4,"C/C(=C\c1ccccc1)[C@@H]1C[C@H]1NCC1CCN(CCC#N)CC1 (racemic) [Compound 135, 3-(4-((((trans)-2-((E)-1-phenylprop-1-en-2-yl)cyclopropyl)amino)methyl)piperidin-1-yl)propanenitrile dihydrochloride]",< 0.1 µM
5,"CNC(=O)c1ccc(CN2CCC(N[C@@H]3C[C@H]3/C(C)=C/c3ccccc3)CC2)cc1 (racemic) [Compound 136, N-methyl-4-((4-(((trans)-2-((E)-1-phenylprop-1-en-2-yl)cyclopropyl)amino)piperidin-1-yl)methyl)benzamide dihydrochloride]",< 0.1 µM
6,"C/C(=C\c1ccccc1)[C@@H]1C[C@H]1NC1CCN(Cc2ccc(C(N)=O)cc2)CC1 (racemic) [Compound 137, 4-((4-(((trans)-2-((E)-1-phenylprop-1-en-2-yl)cyclopropyl)amino)piperidin-1-yl)methyl)benzamide dihydrochloride]",< 0.1 µM
7,"CC/C(=C\c1ccccc1)[C@@H]1C[C@H]1NCC1CCN(Cc2ccc(C(=O)O)cc2)CC1 (racemic) [Compound 163, 4-((4-((((trans)-2-((E)-1-phenylbut-1-en-2-yl)cyclopropyl)amino)methyl)piperidin-1-yl)methyl)benzoic acid bis trifluoroacetic acid salt]",< 0.1 µM
8,"C/C(=C\c1ccccc1)[C@@H]1C[C@H]1N[C@H]1CC[C@H](NCCCC(=O)O)CC1 (racemic) [Compound 164, 4-(((trans)-4-(((trans)-2-((E)-1-phenylprop-1-en-2-yl)cyclopropyl)amino)cyclohexyl)amino)butanoic Acid bis(trifluoroacetic Acid) Salt]",< 0.1 µM
9,"C/C(=C\c1ccccc1)[C@@H]1C[C@H]1N[C@H]1CC[C@@H](NCCCC(=O)O)CC1 (racemic) [Compound 165, 4-(((cis)-4-(((trans)-2-((E)-1-phenylprop-1-en-2-yl)cyclopropyl)amino)cyclohexyl)amino)butanoic Acid bis(trifluoroacetic Acid) Salt]",< 0.1 µM
10,"CC/C(=C\c1ccccc1)[C@@H]1C[C@H]1N[C@H]1CC[C@@H](N)CC1 (racemic) [Compound 168, (cis)-N^1-((trans)-2-((E)-1-phenylbut-1-en-2-yl)cyclopropyl)cyclohexane-1,4-diamine Dihydrochloride]",< 0.1 µM
11,"CC/C(=C\c1ccccc1)[C@@H]1C[C@H]1N[C@H]1CC[C@H](N)CC1 (racemic) [Compound 169, (trans)-N^1-((trans)-2-((E)-1-phenylbut-1-en-2-yl)cyclopropyl)cyclohexane-1,4-diamine Dihydrochloride]",< 0.1 µM
12,C/C(=C\c1ccc(-c2cnn(C)c2)cc1)[C@@H]1C[C@H]1NC1CCNCC1 (racemic) [Compound 175],< 0.1 µM
